Measurements reported in US20240246977A1, “DEGRADATION OF BRUTON'S TYROSINE KINASE (BTK) BY CONJUGATION OF BTK INHIBITORS WITH E3 LIGASE LIGAND AND METHOD OF USE” (BeiGene Switzerland GmbH, priority 2021, published 2024).

Assays:
HEK-293 cells = assay: HEK-293 cytotoxicity detection (CellTiter-Glo); type: cell-based; settings: Homo sapiens, 72 h, 72 h incubation, CellTiter-Glo luminescence, read-out: HEK293
How it was run: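 HEK-293 cells exposed 72 h to 8 compounds doses (4-fold dilutions, top stock 5 mM at 500×) in 0.2% DMSO. Viability by CellTiter-Glo luminescence; inhibition normalised to DMSO high control and low control, IC50 from four-parameter curve fit.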

BTK = BTK (Homo sapiens, UniProt Q06187); assay: BTK cell degradation in TMD-8 cells, HTRF assay; type: cell-based; parameters: endogenous in cells; host or cells: TMD-8 cells; settings: 6 h treatment, IC50 (DC50) of BTK degradation
Sequence of BTK (Q06187 whole entry): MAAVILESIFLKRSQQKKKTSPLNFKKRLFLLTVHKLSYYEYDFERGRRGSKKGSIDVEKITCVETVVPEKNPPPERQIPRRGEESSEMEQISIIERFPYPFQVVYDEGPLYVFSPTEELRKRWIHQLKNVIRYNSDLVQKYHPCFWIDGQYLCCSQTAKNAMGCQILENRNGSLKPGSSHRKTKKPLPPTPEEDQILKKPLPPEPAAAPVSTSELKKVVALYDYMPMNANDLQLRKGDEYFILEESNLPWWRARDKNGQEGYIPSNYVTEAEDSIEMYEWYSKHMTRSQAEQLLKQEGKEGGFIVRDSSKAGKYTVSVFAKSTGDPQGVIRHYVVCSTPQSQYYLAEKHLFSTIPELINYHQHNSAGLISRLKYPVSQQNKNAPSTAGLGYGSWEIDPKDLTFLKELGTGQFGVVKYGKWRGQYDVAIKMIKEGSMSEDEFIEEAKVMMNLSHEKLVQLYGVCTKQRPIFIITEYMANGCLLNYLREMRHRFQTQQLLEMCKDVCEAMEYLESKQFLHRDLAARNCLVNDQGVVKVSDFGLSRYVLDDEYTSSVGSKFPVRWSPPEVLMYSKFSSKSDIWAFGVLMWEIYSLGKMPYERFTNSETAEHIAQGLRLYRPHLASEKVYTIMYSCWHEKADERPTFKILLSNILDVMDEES
How it was run: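 BTK levels read by HTRF in lysates of TMD-8 cells exposed to compounds for 6 h, eight concentrations at 6-fold steps in 0.2% DMSO. Percent degradation versus DMSO and low controls was fitted with a four-parameter equation to give DC50; Dmax is maximal degradation.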

| DC50 (BTK) [nM] | SMILES | IC50 (HEK-293 cells) [nM] |
| --- | --- | --- |
| 2.32 | Cc1c(C(=O)Nc2ncn(C)n2)ccc(-c2nn3c(c2C(N)=O)Nc2ccc(N4CCN(CC5CCN(c6ccc(N7CCC(=O)NC7=O)cc6)CC5)CC4)cc2CC3)c1F [Example B84, 7-(4-((1-(4-(2,4-dioxotetrahydropyrimidin-1(2H)-yl)phenyl)piperidin-4-yl)methyl)piperazin-1-yl)-2-(2-fluoro-3-methyl-4-((1-methyl-1H-1,2,4-triazol-3-yl)carbamoyl)phenyl)-9,10-dihydro-4H-benzo[d]pyrazolo[1,5-a][1,3]diazepine-3-carboxamide] | > 10000 |
| 4.37 | Cc1c(C(=O)Nc2cc(C)n(C)n2)ccc(-c2nn3c(c2C(N)=O)Nc2ccc(N4CCN(CC5CCN(c6ccc(N7CCC(=O)NC7=O)cc6)CC5)CC4)cc2CC3)c1F [Example B86, 2-(4-((1,5-dimethyl-1H-pyrazol-3-yl)carbamoyl)-2-fluoro-3-methylphenyl)-7-(4-((1-(4-(2,4-dioxotetrahydropyrimidin-1(2H)-yl)phenyl)piperidin-4-yl)methyl)piperazin-1-yl)-9,10-dihydro-4H-benzo[d]pyrazolo[1,5-a][1,3]diazepine-3-carboxamide] | > 10000 |
| 0.591 | Cc1c(C(=O)Nc2cn(C)cn2)ccc(-c2nn3c(c2C(N)=O)Nc2ccc(N4CCN(CC5CCN(c6ccc(N7CCC(=O)NC7=O)cc6)CC5)CC4)cc2CC3)c1F [Example B87, 7-(4-((1-(4-(2,4-dioxotetrahydropyrimidin-1(2H)-yl)phenyl)piperidin-4-yl)methyl)piperazin-1-yl)-2-(2-fluoro-3-methyl-4-((1-methyl-1H-imidazol-4-yl)carbamoyl)phenyl)-9,10-dihydro-4H-benzo[d]pyrazolo[1,5-a][1,3]diazepine-3-carboxamide] | > 10000 |

The remaining lines, values behind:

| SMILES | DC50 (BTK) [nM] | IC50 (HEK-293 cells) [nM] |
| --- | --- | --- |
| Cc1c(C(=O)Nc2nccs2)ccc(-c2nn3c(c2C(N)=O)Nc2ccc(N4CCN(CC5CCN(c6ccc(N7CCC(=O)NC7=O)cc6)CC5)CC4)cc2CC3)c1F [Example B83, 7-(4-((1-(4-(2,4-dioxotetrahydropyrimidin-1(2H)-yl)phenyl)piperidin-4-yl)methyl)piperazin-1-yl)-2-(2-fluoro-3-methyl-4-(thiazol-2-ylcarbamoyl)phenyl)-9,10-dihydro-4H-benzo[d]pyrazolo[1,5-a][1,3]diazepine-3-carboxamide] | 2.9 | > 10000 |
| Cc1c(C(=O)Nc2nc(C(F)(F)F)n[nH]2)ccc(-c2nn3c(c2C(N)=O)Nc2ccc(N4CCN(CC5CCN(c6ccc(N7CCC(=O)NC7=O)cc6)CC5)CC4)cc2CC3)c1F [Example B85, 7-(4-((1-(4-(2,4-dioxotetrahydropyrimidin-1(2H)-yl)phenyl)piperidin-4-yl)methyl)piperazin-1-yl)-2-(2-fluoro-3-methyl-4-((3-(trifluoromethyl)-1H-1,2,4-triazol-5-yl)carbamoyl)phenyl)-9,10-dihydro-4H-benzo[d]pyrazolo[1,5-a][1,3]diazepine-3-carboxamide] | 1.87 | > 10000 |
| Cc1c(C(=O)Nc2cn(C)cn2)ccc(-c2nn3c(c2C(N)=O)Nc2ccc(N4CCN(CCc5cc(F)c(C6CCC(=O)NC6=O)c(F)c5)CC4)cc2CC3)c1F (centres unmarked) [Example B88, 7-(4-(4-(2,6-dioxopiperidin-3-yl)-3,5-difluorophenethyl)piperazin-1-yl)-2-(2-fluoro-3-methyl-4-((1-methyl-1H-imidazol-4-yl)carbamoyl)phenyl)-9,10-dihydro-4H-benzo[d]pyrazolo[1,5-a][1,3]diazepine-3-carboxamide] | 1.63 | > 10000 |
| Cc1c(C(=O)Nc2cn(C)cn2)ccc(-c2nn3c(c2C(N)=O)Nc2ccc(N4CCN(CCc5cccc6c5oc(=O)n6C5CCC(=O)NC5=O)CC4)cc2CC3)c1F (centres unmarked) [Example B90, 7-(4-(2-(3-(2,6-dioxopiperidin-3-yl)-2-oxo-2,3-dihydrobenzo[d]oxazol-7-yl)ethyl)piperazin-1-yl)-2-(2-fluoro-3-methyl-4-((1-methyl-1H-imidazol-4-yl)carbamoyl)phenyl)-9,10-dihydro-4H-benzo[d]pyrazolo[1,5-a][1,3]diazepine-3-carboxamide] | 0.706 | > 10000 |
